Reference: patent US4755385A, “Oral pharmaceutical preparations containing 9-deoxo-11-deoxy-9,11-[imino[2-(2-methoxyethoxy)-ethylidene]-oxy]-(9S)-e rythromycin” (priority 1985, dated 1988)
Read-outs that look alike come from different tables or passages of the source.

Columns and labels:
[1] = Stability of the active substance as a function of pH (% intact substance)
[2] = DE-A1-2,515,075; particularly when given dissolved, e.g. intravenously; cited from earlier work

| SMILES | stability in acidic media / gastric juices ([1]; gastric juices (pH 1.0 to 2.0)) | remaining at 0.5 h ([1]; pH 1) [%] | remaining at 0.5 h ([1]; pH 6) [%] | remaining at 0.5 h ([1]; pH 6.5) [%] | remaining at 0.5 h ([1]; pH 7) [%] | remaining at 0.5 h ([1]; pH 7.5) [%] | remaining at 0.5 h ([1]; pH 8) [%] | chemical stability around pH 5.5 ([1]; pH around 5.5) | antibacterial activity [2] | remaining at 0.5 h ([1]; pH 1.3) [%] | remaining at 1 h ([1]; pH 1.3) [%] | remaining at 0.5 h ([1]; pH 4.5) [%] | remaining at 1 h ([1]; pH 4.5) [%] | remaining at 0.5 h ([1]; pH 5.5) [%] | remaining at 1 h ([1]; pH 5.5) [%] | chemical stability around pH 5.5 |
| --- | --- | --- | --- | --- | --- | --- | --- | --- | --- | --- | --- | --- | --- | --- | --- | --- |
| CC[C@H]1OC(=O)[C@H](C)[C@@H](O[C@H]2C[C@@](C)(OC)[C@@H](O)[C@H](C)O2)[C@H](C)[C@@H](O[C@@H]2O[C@H](C)C[C@H](N(C)C)[C@H]2O)[C@](C)(O)C[C@@H](C)[C@@H]2NC(COCCOC)O[C@H]([C@H]2C)[C@]1(C)O (stereo partly drawn) [AS-E 136, 9-deoxo-11-deoxy-9,11-[imino[2-(2-methoxyethoxy)-ethylidene]oxy]-(9S)-erythromycin] | usually destroyed in a short time | 10 | 20 | 20 | 50 | 80 | 95 | retains its susceptibility to hydrolysis unchanged | particularly good antibacterial activity |  |  |  |  |  |  |  |
| CC[C@H]1OC(=O)[C@H](C)[C@@H](O[C@H]2C[C@@](C)(OC)[C@@H](O)[C@H](C)O2)[C@H](C)[C@@H](O[C@@H]2O[C@H](C)C[C@H](N(C)C)[C@H]2O)[C@](C)(O)C[C@@H](C)C(=O)[C@H](C)[C@@H](O)[C@]1(C)O [erythromycin, reference compound] |  |  |  |  |  |  |  |  |  | 30 | 10 | 55 | 50 | 100 | 85 | chemically stable long enough to be resorbed |
